Test system: human keratinocytes (NHKs)
Assay: Lipofuscin autofluorescence in human keratinocytes under H2O2 oxidative stress, normalized to total protein
Assay type: cell-based
Details: Keratinocyte, 48 h, 0.5 µg/ml oleuropein for 24 h before and 2 days after the stress, 1 mM H2O2 for 20 minutes, measured 2 days after oxidative stress, read-out: decrease of lipofuscin formation, as compared to untreated H2O2- exposed cells
Protocol: Because there is no specific lipofuscin antibody and its composition varies between different cell types, lipofuscin autofluorescence is the most widely used method for its detection and quantification. In order to evaluate the effect of oleuropein on lipofuscin formation in oxidatively stressed cells, lipofuscin accumulation was measured by autofluorescence, after induction of oxidative stress to human keratinocytes, treated or not with oleuropein.
After 24h incubation with oleuropein, the cells were treated with 1mM H2O2 for 20 minutes. After a recovery time of 2, 4 or 7 days, representative pictures of cells were taken and lipofuscin amount was quantified by autofluorescence measurement. […]
After 2, 4 and 7 days, respectively, representative pictures of the cells were taken, and lipofuscin autofluorescence was measured.
The total protein content was determined at each time-point for data normalization purposes. […]
The autofluorescence of lipofuscin was detected at wavenlengths of 570-605nm after an excitation at 366nm, using a fluorometer (Vistor2TM, PerkinElmer, Belgium).
For each condition tested, the quantity of autofluorescent lipofuscin was normalized to the amount of total proteins. […] The dosage of proteins was performed following the Bradford method, based on the detection of the absorbance of Coomassie Blue (Coomassie Protein Assay Kit, Pierce, USA). […]

C/C=C1/[C@H](O[C@@H]2O[C@H](CO)[C@@H](O)[C@H](O)[C@H]2O)OC=C(C(=O)OC)[C@H]1CC(=O)OCCc1ccc(O)c(O)c1 [oleuropein, Oleuropein]
inhibition at 0.5 µg/mL: 13%

— EP2218441A1, “Methods for the prevention and/or treatment of age spots” (Rahn Ag, priority 2009, dated 2010)
